Laboratory results reported in PubChem BioAssay (NCI).
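Following 48 hours of exposure in 96-well plates, responses at five concentrations were used to interpolate endpoints linearly. GI50 = concentration required for 50% inhibition of growth. At the TGI there is no net growth.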

What was measured:
Assay in all cases: inhibition of tumour cell growth, NCI panel, 48 h
786-0 renal = tested on: 786-0 renal
ACHN renal = tested on: ACHN renal
HCC-2998 colon = tested on: HCC-2998 colon
HOP-92 NSCLC = tested on: HOP-92 NSCLC
NCI/ADR-RES ovarian = tested on: NCI/ADR-RES ovarian
PC-3 prostate = tested on: PC-3 prostate
SF-268 CNS = tested on: SF-268 CNS
SF-539 CNS = tested on: SF-539 CNS
T-47D breast = tested on: T-47D breast
U251 CNS = tested on: U251 CNS

Row | SMILES | GI50 (786-0 renal) [µM] | TGI (786-0 renal) [µM] | GI50 (ACHN renal) [µM] | TGI (ACHN renal) [µM] | GI50 (HCC-2998 colon) [µM] | TGI (HCC-2998 colon) [µM] | GI50 (HOP-92 NSCLC) [µM] | TGI (HOP-92 NSCLC) [µM] | GI50 (NCI/ADR-RES ovarian) [µM] | TGI (NCI/ADR-RES ovarian) [µM] | GI50 (PC-3 prostate) [µM] | TGI (PC-3 prostate) [µM] | GI50 (SF-268 CNS) [µM] | TGI (SF-268 CNS) [µM] | GI50 (SF-539 CNS) [µM] | TGI (SF-539 CNS) [µM] | GI50 (T-47D breast) [µM] | TGI (T-47D breast) [µM] | GI50 (U251 CNS) [µM] | TGI (U251 CNS) [µM]
1 | Fc1cccc(Cl)c1Cn1c(-c2c(F)cccc2Cl)nc2ccccc21 | 21 | 42.6 | 18.9 | 41.4 | 2.31 | 9.87 | 13.9 | 38.5 | 18.7 | 54.4 | 14.7 | 55.3 | 15 | 32.6 | 23.1 | 46.2 | 13.9 | 62.9 | 19.9 | 47.1
2 | COc1ccccc1NC(=O)C1=C(C)NC(C)=C(C(=O)Nc2ccccc2OC)C1c1cccc2ccccc12 | – | > 100 | – | > 100 | – | > 100 | – | 7.87 | – | – | – | – | – | > 100 | – | > 100 | – | – | – | > 100
3 | O=C(NO)c1ccc(Cn2c(=O)n(-c3ccccc3)c(=O)c3ccccc32)cc1 | 1.48 | 3.2 | 1.67 | 6.37 | 1.31 | 2.65 | 1.6 | 4.18 | 2.67 | 39.5 | 1.72 | 4.53 | 1.38 | 4.52 | 0.693 | 2.86 | 0.436 | 2.95 | 0.86 | 2.3
4 | CCOC(=O)C(=O)Nc1ccccc1OCC | – | > 100 | – | > 100 | – | > 100 | – | > 100 | – | – | – | – | – | > 100 | – | > 100 | – | – | – | > 100
